In the NIST ThermoML archive (doi:10.1021/je500275j):

Assay: xn = mol fraction of the nth substance listed
Details: 100 kPa, Liquid; for viscosity: Falling or rolling sphere viscometry; for mass density: Vibrating tube method

C1CCC(C2CCCCC2)CC1 [1,1'-bicyclohexyl] + CC1CCCCC1
Details | mass density [kg/m3] | viscosity [mPa·s]
293.15 K, x1 = 0.0999 | 786.65 | 0.882
293.15 K, x1 = 0.2015 | 802.4 | 1.053
293.15 K, x1 = 0.3012 | 816.38 | 1.269
293.15 K, x1 = 0.4007 | 828.96 | 1.513
293.15 K, x1 = 0.4994 | 840.4 | 1.77
293.15 K, x1 = 0.5986 | 850.98 | 2.12
293.15 K, x1 = 0.7002 | 861.06 | 2.507
293.15 K, x1 = 0.7998 | 870.05 | 2.935
293.15 K, x1 = 0.8998 | 878.51 | 3.428
293.15 K, x1 = 1 | 886.39 | 4.017
298.15 K, x1 = 0.0999 | 782.49 | 0.821
298.15 K, x1 = 0.2015 | 798.27 | 0.977
298.15 K, x1 = 0.3012 | 812.39 | 1.173
298.15 K, x1 = 0.4007 | 825.06 | 1.389
298.15 K, x1 = 0.4994 | 836.55 | 1.616
298.15 K, x1 = 0.5986 | 847.21 | 1.923
298.15 K, x1 = 0.7002 | 857.36 | 2.261
298.15 K, x1 = 0.7998 | 866.41 | 2.628
298.15 K, x1 = 0.8998 | 874.87 | 3.05
298.15 K, x1 = 1 | 882.79 | 3.541
303.15 K, x1 = 0.0999 | 778.28 | 0.768
303.15 K, x1 = 0.2015 | 794.17 | 0.905
303.15 K, x1 = 0.3012 | 808.39 | 1.086
303.15 K, x1 = 0.4007 | 821.14 | 1.28
303.15 K, x1 = 0.4994 | 832.74 | 1.49
303.15 K, x1 = 0.5986 | 843.46 | 1.754
303.15 K, x1 = 0.7002 | 853.63 | 2.056
303.15 K, x1 = 0.7998 | 862.73 | 2.367
303.15 K, x1 = 0.8998 | 871.23 | 2.73
303.15 K, x1 = 1 | 879.19 | 3.145
308.15 K, x1 = 0.0999 | 774.06 | 0.722
308.15 K, x1 = 0.2015 | 790.07 | 0.85
308.15 K, x1 = 0.3012 | 804.38 | 1.01
308.15 K, x1 = 0.4007 | 817.21 | 1.185
308.15 K, x1 = 0.4994 | 828.85 | 1.373
308.15 K, x1 = 0.5986 | 839.63 | 1.609
308.15 K, x1 = 0.7002 | 849.8 | 1.871
308.15 K, x1 = 0.7998 | 859.05 | 2.143
308.15 K, x1 = 0.8998 | 867.6 | 2.459
308.15 K, x1 = 1 | 875.6 | 2.817
313.15 K, x1 = 0.0999 | 769.83 | 0.679
313.15 K, x1 = 0.2015 | 785.95 | 0.795
313.15 K, x1 = 0.3012 | 800.36 | 0.942
313.15 K, x1 = 0.4007 | 813.28 | 1.102
313.15 K, x1 = 0.4994 | 824.98 | 1.268
313.15 K, x1 = 0.5986 | 835.85 | 1.474
313.15 K, x1 = 0.7002 | 846.15 | 1.708
313.15 K, x1 = 0.7998 | 855.37 | 1.953
313.15 K, x1 = 0.8998 | 863.97 | 2.227
313.15 K, x1 = 1 | 872.01 | 2.54
318.15 K, x1 = 0.0999 | 765.59 | 0.641
318.15 K, x1 = 0.2015 | 781.82 | 0.747
318.15 K, x1 = 0.3012 | 796.34 | 0.882
318.15 K, x1 = 0.4007 | 809.35 | 1.025
318.15 K, x1 = 0.4994 | 821.14 | 1.177
318.15 K, x1 = 0.5986 | 832.06 | 1.37
318.15 K, x1 = 0.7002 | 842.45 | 1.582
318.15 K, x1 = 0.7998 | 851.7 | 1.788
318.15 K, x1 = 0.8998 | 860.35 | 2.032
318.15 K, x1 = 1 | 868.43 | 2.302
